This note sets out measurements from US20160039852A1, “THERAPEUTIC USES OF BISPHOSPHONATES” (THE UNIVERSITY OF SHEFFIELD, priority 2013, published 2016).

In assay [1] the test system is normal human dermal fibroblasts. The experiment in a line: Human dermal fibroblast growth, cumulative population doublings. Type of assay: cell-based. The text has this:
Cultures (n=3) grown in PBS senesced after 17-21 population doublings (PDs) (square symbols) whereas cultures grown in presence of Zol were still proliferating after 27-34 PDs (triangle symbols).

Assay [2] concerns 5T33 Multiple Myeloma line. Description: γH2AX DNA damage foci in 5T33 multiple myeloma line after irradiation. Particulars: 1 μM Zol for 3 days prior to 1Gy, γH2AX 4 h later. Type of assay: cell-based, murine. The protocol: 5T33MM were exposed to 1 μM Zol for 3 days prior to irradiation at 1Gy and assessment of γH2AX 4 h later (Zol). UI, are hMSC non irradiated, PBS, are hMSC irradiated in absence of Zol. Data are expressed as mean±SEM and were analysed by one way ANOVA and Bonferroni post-test for multiple comparison *p<0.05, **p<0.01, ***p<0.001
DNA damage was induced by exposing hMSC to ^137Cs Gamma source. Cells were washed with PBS and fixed with 4% Para-formaldehyde for 15mins. Cells were then washed with PBS permeabilized with 0.5% Triton-X (Sigma, UK) for 2mins and blocked with 5% normal goat serum (DAKO, Glostrup, Denmark) in PBS for 1 hr. This was followed by incubation with primary antibody, anti-phospho histone H2AX (Ser139) (Millipore, Massachusetts, USA) used at 1:800 in 5% normal goat serum, overnight at 4° C. Cells were then washed in PBS and incubated in secondary Anti mouse IgG Fluorescein Isothiocyanate (FITC) conjugated (Insight Biotechnology, Santa Cruz, USA) at 1:200 in PBS for 1 hour at room temperature. The cover-slips were mounted on slides with mounting media (VectaShield) containing 4′,6-diamidino-2-phenylindole (DAPI) to stain the nuclei. […] Five to seven fields consisting of 25 cells in total were randomly selected from a tile scan (20×) and individual cells viewed at 63× were then scored for γH2AX DNA damage foci using ImageJ 1.45 software (http://rsbweb.nih.gov/ij/).

Assay [3] deals with human mesenchymal stem cells (hMSC). Description: Immunostaining of γH2AX DNA damage foci (double stranded breaks) in hMSC. Type of assay: cell-based. The protocol: DNA damage was induced by exposing hMSC to ^137Cs Gamma source. Cells were washed with PBS and fixed with 4% Para-formaldehyde for […]. Cells were then washed with PBS permeabilized with 0.5% Triton-X (Sigma, UK) for […] and blocked with 5% normal goat serum (DAKO, Glostrup, Denmark) in PBS for 1 hr. This was followed by incubation with primary antibody, anti-phospho histone H2AX (Ser139) (Millipore, Massachusetts, USA) used at 1:800 in 5% normal goat serum, overnight at 4° C. Cells were then washed in PBS and incubated in secondary Anti mouse IgG Fluorescein Isothiocyanate (FITC) conjugated (Insight Biotechnology, Santa Cruz, USA) at 1:200 in PBS for 1 hour at room temperature. The cover-slips were mounted on slides with mounting media (VectaShield) containing 4',6-diamidino-2-phenylindole (DAPI) to stain the nuclei. […] Cells were viewed using in an Inverted Zeiss LSM 510 NLO microscope equipped with Argon (Ar) laser (488 nm) 30 mW to image the fluorescent marker FITC and UV lamp to image DAPI stained nuclei. Five to seven fields consisting of 25 cells in total were randomly selected from a tile scan (20×) and individual cells viewed at 63× were then scored for γH2AX DNA damage foci using ImageJ 1.45 software (http://rsbweb.nih.gov/ij/). One of the factors affecting cellular lifespan is accumulation of DNA damage.

A further assay deals with unprenylated Rap1A. The experiment in a line: Western blot of unprenylated Rap1A in hMSC. Type of assay: cell-based, human. The note with it: hMSC exposed to increasing amounts of Zol. On the procedure: Three times 10^6 hMSC were lysed in mammalian cell lysis buffer (Mammalian cell lysis kit, Sigma-Aldrich, Dorset, UK) containing 250 mM Tris-5 mM EDTA, 750 mM sodium chloride, 0.5% sodium dodecyl sulphate, 2.5% deoxycholic acid and 5% Igepal supplemented with 10 μl of Proteinase inhibitors cocktail (Sigma-Aldrich, Dorset, UK) containing 4-(2-aminoethyl) benzenesulfonyl fluoride (AEBSF), pepstatin A, bestatin, leupeptin, aprotinin and trans-epoxysuccinyl-L-leucyl-amido(4-guanidino)-butane (E-64) according to manufacturer instruction. Phosphatase inhibitor cocktail (Sigma) was also added when preparing lysates for the detection of AKT, pAKT, P70S6K, and p-P70S6K.
Protein lysates (50 μg) were diluted in equal volume of 2× Laemmli buffer (Gibco) containing Dithiothreitol (DTT, Sigma,UK). The samples were heated at 95° C. for 5 minutes and loaded on a 12% Tris-glycine gel. […] Detection was carried out using enhanced chemi-luminescence plus ECL reaction kit (GE Healthcare, Buckinghamshire, UK) and quantification of protein expression was carried out using image J software.
(FPPS) enzyme in the mevalonate pathway and thereby reducing prenylation of small GTPases, such as Rap, Rac, Rho, Rheb (FIG. 3A). […] To this end, levels of unprenylated Rap1A were measured in hMSC exposed to increasing amounts of Zol.

Entries after “also recorded” stand apart in the source; their conditions may differ.

`O=P(O)(O)C(O)(Cn1ccnc1)P(=O)(O)O` [Zoledronate]: the “lifespan of normal human dermal fibroblasts” value in assay [1] is recorded as “extends lifespan”. In addition, the “population doublings after which cultures were still proliferating” value in assay [1] (human dermal fibroblasts in presence of Zol, PBS cultures senesced after 17-21 PDs, n=3) is recorded as 27-34 PDs. In assay [2], the “DNA repair capacity (γH2AX foci)” value is listed as “does not enhance the DNA repair capacity”. In addition, the “DNA repair (γH2AX DNA damage foci), FIG. 9” value in assay [3] (1 μM, 4 hours after irradiation, Compound C compared with Zol) is reported as “significant decrease”. For the same molecule, the “number of γH2AX DNA damage foci after irradiation” value is “significant decrease; also recorded: significant reduction” in assay [3] (1Gy irradiation, compound at 1 μM, foci at 4 h (Zol also 12, 24 h) versus PBS, listed as Zol); “significant decrease” in assay [3] (3 and 5Gy irradiation (data not shown)). Further, the “number of γH2AX DNA damage foci, dose response” value in assay [3] (increasing dosing with Zol) is reported as “reduced number of DNA damage foci”. For the same molecule, in assay [3] (passage 3 (early) and p10 (late), no irradiation, listed as Zol), the “incidence of DNA damage foci with passage” value is reported as “significantly higher in untreated hMSC; also recorded: reduced”. The “expression of unprenylated Rap1A” value in the assay with unprenylated Rap1A is given as “increased expression”.
